Data from PMC1470342 (Environmental Health Perspectives, 1997).

Columns and labels:
[1] = target: T1, Gal4-human ER chimera (Gal4-HEGO) (Homo sapiens, UniProt P03372); test: Recombinant receptor/reporter gene assay; assay type: cell-based
T1 sequence (P03372 311-547 limits assumed): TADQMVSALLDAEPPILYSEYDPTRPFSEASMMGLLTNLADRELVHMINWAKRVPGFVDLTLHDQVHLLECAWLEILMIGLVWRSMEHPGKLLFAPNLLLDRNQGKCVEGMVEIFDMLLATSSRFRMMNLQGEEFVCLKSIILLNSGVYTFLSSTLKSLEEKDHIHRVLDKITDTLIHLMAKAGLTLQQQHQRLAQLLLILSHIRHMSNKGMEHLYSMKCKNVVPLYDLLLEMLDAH

ovariectomized CD-1 mice [2] = test: Mouse uterotrophic assay; assay type: in vivo; settings: 202 mg/kg, p < 0.0002
MCF-7 cells = test: GC-MS analysis of media from PCB 104-treated transfected MCF-7 cells; settings: MCF-7 cells incubated with PCB 104 for 8, 24, 48 hr; SIM GC-MS
ovariectomized CD-1 mice [3] = test: Vaginal cell cornification assay; assay type: in vivo, mouse; settings: 202, 16 and 1.7 mg/kg
[4] = co-treatment 1 nM E2 plus 0.1, 1, 10 pM (printed)

Row | SMILES | estrogenic activity in reporter gene assay ([1]; alone, 24 hr) | effect on E2-induced luciferase activity compared to E2 alone [1, 4] | effect on E2-induced luciferase activity compared to E2 alone ([1]; co-treatment 1 nM E2 plus 10 pM (printed; 10 microM in abstract)) | uterine wet weight versus vehicle control (ovariectomized CD-1 mice [2]) | presence of metabolite HO-PCB 104 or hydroxylated isomers in media extracts (MCF-7 cells) | vaginal cell cornification, dose response (ovariectomized CD-1 mice [3])
1 | Clc1cc(Cl)c(-c2c(Cl)cc(Cl)cc2Cl)c(Cl)c1 [PCB 155, 2,4,6,2',4',6'-hexachlorobiphenyl] | minimal | significant antiestrogenic activity |  |  |  | 
2 | Oc1cc(Cl)c(-c2c(Cl)cc(Cl)cc2Cl)c(Cl)c1 [HO-PCB 104, 2,4,6,2',6'-pentachloro-4-biphenylol] |  |  | additivity |  |  | 
3 | Clc1cc(Cl)c(-c2c(Cl)cccc2Cl)c(Cl)c1 [PCB 104, 2,4,6,2',6'-pentachlorobiphenyl] |  | no effect |  | increased uterine wet weight | failed to detect | induced vaginal epithelial cell cornification
